{"source": "patent US4282236A", "about": "“β-Lactam antibacterial agents, their use in pharmaceutical compositions, and intermediates” (Beecham Group Limited, priority 1979, dated 1981)", "assay_type_in_all_cases": "cell-based", "key": {"[1]": {"test_system": "Staphylococcus aureus Oxford", "assay": "MIC, microtitre using nutrient broth", "conditions": "read-out: minimum inhibitory concentration (MIC)", "experimental": "(§1) The penem ester (21) (30 mg) was dissolved in a mixture of dioxane (4 ml) and water (1 ml) and hydrogenated over 5% palladium on charcoal catalyst (45 mg) for one hour. A further amount of catalyst (30 mg) was added and the hydrogenation was continued for a further one and a half hours. A 1% solution of sodium bicarbonate (0.6 ml) was added and the mixture filtered through Kieselguhr. The mixture was evaporated to low volume, water (10 ml) was added, and the aqueous solution washed with a little ethyl acetate. Evaporation of the aqueous phase afforded the sodium salt (22) (17 mg) as an amorphous solid. λmax. (EtOH) 364 n.m.\n(§2) 2. Microtitre using nutrient\n(§3) lution for G.div.ve bacteria or\n(§4) broth a 10^- 4 dilution for G-ve\n(§5) Minimum Inhibitory Concentrations are expressed in microgrammes per ml."}, "[2]": {"test_system": "Klebsiella aerogenes A", "assay": "MIC, microtitre using nutrient broth", "conditions": "read-out: minimum inhibitory concentration (MIC)", "experimental": "as §1, §2, §3, §4, §5"}, "[3]": {"test_system": "Salmonella typhimurium CT10", "assay": "MIC, microtitre using nutrient broth", "conditions": "Salmonella enterica, read-out: minimum inhibitory concentration (MIC)", "experimental": "as §1, §2, §3, §4, §5"}, "[4]": {"test_system": "Staphylococcus aureus Russell", "assay": "MIC, microtitre using nutrient broth", "conditions": "read-out: minimum inhibitory concentration (MIC)", "experimental": "as §1, §2, §3, §4, §5"}, "[5]": {"test_system": "Pseudomonas aeruginosa A", "assay": "MIC, microtitre using nutrient broth", "conditions": "read-out: minimum inhibitory concentration (MIC)", "experimental": "as §1, §2, §3, §4, §5"}, "[6]": {"test_system": "Escherichia coli JT 39", "assay": "MIC, microtitre using nutrient broth", "conditions": "JT39, read-out: minimum inhibitory concentration (MIC)", "experimental": "as §1, §2, §3, §4, §5"}, "[7]": {"test_system": "Proteus mirabilis C977", "assay": "MIC, microtitre using nutrient broth", "conditions": "read-out: minimum inhibitory concentration (MIC)", "experimental": "as §1, §2, §3, §4, §5"}, "[8]": {"test_system": "Escherichia coli 0111", "assay": "MIC, microtitre using nutrient broth", "conditions": "read-out: minimum inhibitory concentration (MIC)", "experimental": "as §1, §2, §3, §4, §5"}, "[9]": {"test_system": "Serratia marcescens US20", "assay": "MIC, DST agar + 10% horse blood", "conditions": "read-out: minimum inhibitory concentration (MIC)", "experimental": "as §1\n(§6) 1. DST agar + 10% horse blood\nas §3, §5"}, "[10]": {"test_system": "Staphylococcus aureus Oxford", "assay": "MIC, DST agar + 10% horse blood", "conditions": "read-out: minimum inhibitory concentration (MIC)", "experimental": "as §1, §6, §3, §5"}, "[11]": {"test_system": "Klebsiella aerogenes A", "assay": "MIC, DST agar + 10% horse blood", "conditions": "read-out: minimum inhibitory concentration (MIC)", "experimental": "as §1, §6, §3, §5"}, "[12]": {"test_system": "Salmonella typhimurium CT10", "assay": "MIC, DST agar + 10% horse blood", "conditions": "Salmonella enterica, read-out: minimum inhibitory concentration (MIC)", "experimental": "as §1, §6, §3, §5"}, "[13]": {"test_system": "Streptococcus pneumoniae CN33", "assay": "MIC, DST agar + 10% horse blood", "conditions": "read-out: minimum inhibitory concentration (MIC)", "experimental": "as §1, §6, §3, §5"}, "[14]": {"test_system": "Proteus morganii I580", "assay": "MIC, DST agar + 10% horse blood", "conditions": "Morganella morganii, read-out: minimum inhibitory concentration (MIC)", "experimental": "as §1, §6, §3, §5"}, "[15]": {"test_system": "Bacillus subtilis A", "assay": "MIC, DST agar + 10% horse blood", "conditions": "read-out: minimum inhibitory concentration (MIC)", "experimental": "as §1, §6, §3, §5"}, "[16]": {"test_system": "Proteus rettgeri WM16", "assay": "MIC, DST agar + 10% horse blood", "conditions": "Providencia rettgeri, read-out: minimum inhibitory concentration (MIC)", "experimental": "as §1, §6, §3, §5"}, "[17]": {"test_system": "Citrobacter freundii E8", "assay": "MIC, DST agar + 10% horse blood", "conditions": "read-out: minimum inhibitory concentration (MIC)", "experimental": "as §1, §6, §3, §5"}, "[18]": {"test_system": "Staphylococcus aureus Russell", "assay": "MIC, DST agar + 10% horse blood", "conditions": "read-out: minimum inhibitory concentration (MIC)", "experimental": "as §1, §6, §3, §5"}, "[19]": {"test_system": "Pseudomonas aeruginosa A", "assay": "MIC, DST agar + 10% horse blood", "conditions": "read-out: minimum inhibitory concentration (MIC)", "experimental": "as §1, §6, §3, §5"}, "[20]": {"test_system": "Enterobacter cloacae N1", "assay": "MIC, DST agar + 10% horse blood", "conditions": "read-out: minimum inhibitory concentration (MIC)", "experimental": "as §1, §6, §3, §5"}, "[21]": {"test_system": "E. coli ESS", "assay": "MIC, DST agar + 10% horse blood", "conditions": "Escherichia coli, read-out: minimum inhibitory concentration (MIC)", "experimental": "as §1, §6, §3, §5"}, "[22]": {"test_system": "Proteus vulgaris W091", "assay": "MIC, DST agar + 10% horse blood", "conditions": "read-out: minimum inhibitory concentration (MIC)", "experimental": "as §1, §6, §3, §5"}, "[23]": {"test_system": "Streptococcus pyogenes CN10", "assay": "MIC, DST agar + 10% horse blood", "conditions": "read-out: minimum inhibitory concentration (MIC)", "experimental": "as §1, §6, §3, §5"}, "[24]": {"test_system": "Staphylococcus aureus 1517", "assay": "MIC, DST agar + 10% horse blood", "conditions": "read-out: minimum inhibitory concentration (MIC)", "experimental": "as §1, §6, §3, §5"}, "[25]": {"test_system": "Shigella sonnei MB 11967", "assay": "MIC, DST agar + 10% horse blood", "conditions": "MB11967, read-out: minimum inhibitory concentration (MIC)", "experimental": "as §1, §6, §3, §5"}, "[26]": {"test_system": "Escherichia coli JT 39", "assay": "MIC, DST agar + 10% horse blood", "conditions": "JT39, read-out: minimum inhibitory concentration (MIC)", "experimental": "as §1, §6, §3, §5"}, "[27]": {"test_system": "Proteus mirabilis C977", "assay": "MIC, DST agar + 10% horse blood", "conditions": "read-out: minimum inhibitory concentration (MIC)", "experimental": "as §1, §6, §3, §5"}, "[28]": {"test_system": "Escherichia coli 0111", "assay": "MIC, DST agar + 10% horse blood", "conditions": "read-out: minimum inhibitory concentration (MIC)", "experimental": "as §1, §6, §3, §5"}}, "data": [{"smiles": "COC(=O)/C=C/C1=C(C(=O)O)N2C(=O)C[C@H]2S1", "note": "[compound 22, Sodium 2-(trans-2-Carbomethoxy-vinyl) penem-3-carboxylate]", "values": [{"measurement": "MIC", "setting": "[1]", "value": 8, "unit": "µg/mL"}, {"measurement": "MIC", "setting": "[2]", "value": 31, "unit": "µg/mL"}, {"measurement": "MIC", "setting": "[3]", "value": 125, "unit": "µg/mL"}, {"measurement": "MIC", "setting": "[4]", "value": 16, "unit": "µg/mL"}, {"measurement": "MIC", "setting": "[5]", "value": "> 500", "unit": "µg/mL"}, {"measurement": "MIC", "setting": "[6]", "value": 250, "unit": "µg/mL"}, {"measurement": "MIC", "setting": "[7]", "value": 125, "unit": "µg/mL"}, {"measurement": "MIC", "setting": "[8]", "value": 62, "unit": "µg/mL"}, {"measurement": "MIC", "setting": "[9]", "value": 50, "unit": "µg/mL"}, {"measurement": "MIC", "setting": "[10]", "value": 5, "unit": "µg/mL"}, {"measurement": "MIC", "setting": "[11]", "value": 25, "unit": "µg/mL"}, {"measurement": "MIC", "setting": "[12]", "value": 50, "unit": "µg/mL"}, {"measurement": "MIC", "setting": "[13]", "value": 0.5, "unit": "µg/mL"}, {"measurement": "MIC", "setting": "[14]", "value": 50, "unit": "µg/mL"}, {"measurement": "MIC", "setting": "[15]", "value": 5, "unit": "µg/mL"}, {"measurement": "MIC", "setting": "[16]", "value": 50, "unit": "µg/mL"}, {"measurement": "MIC", "setting": "[17]", "value": 25, "unit": "µg/mL"}, {"measurement": "MIC", "setting": "[18]", "value": 10, "unit": "µg/mL"}, {"measurement": "MIC", "setting": "[19]", "value": "> 100", "unit": "µg/mL"}, {"measurement": "MIC", "setting": "[20]", "value": 50, "unit": "µg/mL"}, {"measurement": "MIC", "setting": "[21]", "value": 25, "unit": "µg/mL"}, {"measurement": "MIC", "setting": "[22]", "value": 50, "unit": "µg/mL"}, {"measurement": "MIC", "setting": "[23]", "value": 2.5, "unit": "µg/mL"}, {"measurement": "MIC", "setting": "[24]", "value": 50, "unit": "µg/mL"}, {"measurement": "MIC", "setting": "[25]", "value": 100, "unit": "µg/mL"}, {"measurement": "MIC", "setting": "[26]", "value": 100, "unit": "µg/mL"}, {"measurement": "MIC", "setting": "[27]", "value": 25, "unit": "µg/mL"}, {"measurement": "MIC", "setting": "[28]", "value": 25, "unit": "µg/mL"}]}]}
